Experimental data taken from US9493441B2, “Acyclic cyanoethylpyrazoles as janus kinase inhibitors” (Merck Sharp & Dohme Corp., priority 2011, dated 2016).
Like-named read-outs stand apart in the source and are kept apart here.

Assays:
[1] = molecular target: JAK1 (Homo sapiens (Human), UniProt P23458); experiment: Jak biochemical HTRF assay, JAK1
[2] = molecular target: JAK2 (Homo sapiens (Human), UniProt O60674); experiment: Jak biochemical HTRF assay, JAK2
[3] = read-out: JAK1 IC50, recombinant GST-tagged catalytic domain, [ATP] 31.8 μM
[4] = read-out: JAK2 IC50, recombinant GST-tagged catalytic domain, [ATP] […]
[5] = JAK1 IC50 (nM), recombinant GST-tagged catalytic domain, [ATP] 31.8 μM
[6] = JAK2 IC50 (nM), recombinant GST-tagged catalytic domain, [ATP] […]

Chain of JAK2 (O60674 849-1124): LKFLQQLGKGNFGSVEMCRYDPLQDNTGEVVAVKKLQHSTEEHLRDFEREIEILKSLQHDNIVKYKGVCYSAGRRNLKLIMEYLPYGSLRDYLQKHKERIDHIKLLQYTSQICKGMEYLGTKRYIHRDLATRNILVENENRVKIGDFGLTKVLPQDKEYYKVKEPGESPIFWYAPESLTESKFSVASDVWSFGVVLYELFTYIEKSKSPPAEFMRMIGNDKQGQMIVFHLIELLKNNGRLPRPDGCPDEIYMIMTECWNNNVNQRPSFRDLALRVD
Chain of JAK1 (P23458 875-1153): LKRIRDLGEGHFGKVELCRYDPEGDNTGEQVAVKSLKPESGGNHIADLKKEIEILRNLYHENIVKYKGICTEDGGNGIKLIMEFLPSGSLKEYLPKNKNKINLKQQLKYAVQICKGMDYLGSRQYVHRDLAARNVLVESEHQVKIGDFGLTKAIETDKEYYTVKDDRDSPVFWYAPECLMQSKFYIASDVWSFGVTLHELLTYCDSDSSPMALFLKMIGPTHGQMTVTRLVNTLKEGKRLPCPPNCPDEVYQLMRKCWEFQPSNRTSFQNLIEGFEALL

| Compound | IC50 [1, 3] [nM] | IC50 [2, 4] [nM] | IC50 [1, 5] [nM] | IC50 [2, 6] [nM] |
| --- | --- | --- | --- | --- |
| 1-[(1R or 1S)-2-cyano-1-cyclopropylethyl]-3-{[4-(methylsulfonyl)phenyl]amino}-1H-pyrazole-4-carboxamide [Example 14-2] | 5 | 55 |  |  |
| N#CCCn1cc(C(N)=O)c(Nc2ccccc2)n1 [Example 1-4, 1-(2-cyanoethyl)-3-(phenylamino)-1H-pyrazole-4-carboxamide] |  |  | 348 | 1190 |
| N#CCC(C1CCCOC1)n1cc(C(N)=O)c(Nc2ccccc2)n1 (stereo not shown) [Example 1-15, 1-[2-cyano-1-(tetrahydro-2H-pyran-3-yl)ethyl]-3-(phenylamino)-1H-pyrazole-4-carboxamide] |  |  | 501 | 1480 |
| N#CCC(C1CC1)n1cc(C(N)=O)c(Nc2ccccc2)n1 (single isomer, unassigned) [Example 17-3, 1-[(1S or 1R)-2-cyano-1-cyclopropylethyl]-3-(phenylamino)-1H-pyrazole-4-carboxamide] |  |  | 10 | 79 |
| N#CCC(C1CC1)n1cc(C(N)=O)c(Nc2ccc(S(=O)(=O)C(F)F)cc2)n1 (stereo not shown) [Example 4-29, 1-(2-cyano-1-cyclopropylethyl)-3-({4-[(difluoromethyl)sulfonyl]phenyl}amino)-1H-pyrazole-4-carboxamide] |  |  | 2 | 13 |
| CC(=O)Nc1ccc(Nc2nn(C(CC#N)C3CC3)cc2C(N)=O)cc1 (stereo not shown) [Example 4-21, 3-{[4-(acetylamino)phenyl]amino}-1-(2-cyano-1-cyclopropylethyl)-1H-pyrazole-4-carboxamide] |  |  | 8 | 45 |
| N#CCC(C1CC1)n1cc(C(N)=O)c(Nc2ccccc2)n1 (stereo not shown) [Example 1-1, 1-(2-Cyano-1-cyclopropylethyl)-3-(phenylamino)-1H-pyrazole-4-carboxamide] |  |  | 10 | 79 |
| N#CCC(C1CCOCC1)n1cc(C(N)=O)c(Nc2ccccc2)n1 (stereo not shown) [Example 1-9, 1-[2-cyano-1-(tetrahydro-2H-pyran-4-yl)ethyl]-3-(phenylamino)-1H-pyrazole-4-carboxamide] |  |  | 241 | 1480 |
| N#CC[C@@H](C1CCN(C(=O)OCc2ccccc2)CC1)n1cc(C(N)=O)c(Nc2ccc(F)cc2)n1 (single isomer, unassigned) [Example 12-6, benzyl 4-[(1S or 1R)-1-{4-carbamoyl-3-[(4-fluorophenyl)amino]-1H-pyrazol-1-yl}-2-cyanoethyl]piperidine-1-carboxylate] |  |  | 190 | 1500 |
| N#CC[C@@H](C1CCN(C(=O)OCC2CC2)CC1)n1cc(C(N)=O)c(Nc2ccc(F)cc2)n1 [Example 11-10, cyclopropylmethyl 4-[(1S)-1-{4-carbamoyl-3-[(4-fluorophenyl)amino]-1H-pyrazol-1-yl}-2-cyanoethyl]piperidine-1-carboxylate] |  |  | 44 | 1160 |
| CC(C)(C)OC(=O)N1CCC(C(CC#N)n2cc(C(N)=O)c(Nc3ccc(F)cc3)n2)C1 (stereo not shown) [Example 1-3, tert-butyl 3-(1-{4-carbamoyl-3-[(4-fluorophenyl)amino]-1H-pyrazol-1-yl}-2-cyanoethyl)pyrrolidine-1-carboxylate] |  |  | 267 | 1480 |
| CC(C)(C)COC(=O)N1CCC([C@H](CC#N)n2cc(C(N)=O)c(Nc3ccc(F)cc3)n2)CC1 (single isomer, unassigned) [Example 12-2, 2,2-dimethylpropyl 4-[(1S or 1R)-1-{4-carbamoyl-3-[(4-fluorophenyl)amino]-1H-pyrazol-1-yl}-2-cyanoethyl]piperidine-1-carboxylate] |  |  | 718 | 1500 |
| N#CCC(C1CC1)n1cc(C(N)=O)c(Nc2ccc3c(c2)CCC3=O)n1 (stereo not shown) [Example 4-19, 1-(2-cyano-1-cyclopropylethyl)-3-[(1-oxo-2,3-dihydro-1H-inden-5-yl)amino]-1H-pyrazole-4-carboxamide] |  |  | 2 | 17 |
| CC(C#N)Cn1cc(C(N)=O)c(Nc2ccc(F)cc2)n1 (stereo not shown) [Example 9, 1-(2-Cyanopropyl)-3-[(4-fluorophenyl)amino]-1H-pyrazole-4-carboxamide] |  |  | 59 | 524 |
| 1-[(1R or 1S)-2-cyano-1-cyclopropylethyl]-3-{[4-(methylsulfonyl)phenyl]amino}-1H-pyrazole-4-carboxamide [Example 14-1] | 1 | 8 |  |  |
| CNC(=O)c1ccc(Nc2nn(C(CC#N)C3CC3)cc2C(N)=O)cc1 (stereo not shown) [Example 4-13, 1-(2-cyano-1-cyclopropylethyl)-3-{[4-(methylcarbamoyl)phenyl]amino}-1H-pyrazole-4-carboxamide] |  |  | 2 | 21 |
| N#CC[C@@H](C1CC1)n1cc(C(N)=O)c(Nc2ccc3c(c2)CNC3=O)n1 (single isomer, unassigned) [Example 19-2, 1-[(1R or 1S)-2-cyano-1-cyclopropylethyl]-3-[(1-oxo-2,3-dihydro-1H-isoindol-5-yl)amino]-1H-pyrazole-4-carboxamide] |  | 105 |  |  |
| N#CCC(n1cc(C(N)=O)c(Nc2ccccc2)n1)C(F)(F)F (stereo not shown) [Example 2, 1-(3-Cyano-1,1,1-trifluoropropan-2-yl)-3-(phenylamino)-1H-pyrazole-4-carboxamide] |  |  | 124 | 339 |
| N#CCCc1cccc(Nc2nn(C(CC#N)C3CC3)cc2C(N)=O)c1 (stereo not shown) [Example 4-7, 1-(2-cyano-1-cyclopropylethyl)-3-{[3-(2-cyanoethyl)phenyl]amino}-1H-pyrazole-4-carboxamide] |  |  | 13 | 73 |
| CC(C)(C)OC(=O)N1CCC(C(CC#N)n2cc(C(N)=O)c(Nc3ccc(F)cc3)n2)CC1 (stereo not shown) [Example 3-1, tert-Butyl 4-(1-[4-carbamoyl-3-[(4-fluorophenyl)amino]-1H-pyrazol-1-yl]-2-cyanoethyl)piperidine-1-carboxylate] |  |  | 49 | 1500 |
| N#CC[C@@H](C1CCN(C(=O)OC2CCOCC2)CC1)n1cc(C(N)=O)c(Nc2ccc(F)cc2)n1 [Example 11-8, tetrahydro-2H-pyran-4-yl 4-[(1S)-1-{4-carbamoyl-3-[(4-fluorophenyl)amino]-1H-pyrazol-1-yl}-2-cyanoethyl]piperidine-1-carboxylate] |  |  | 220 | 1500 |
| N#CCC(C1CC1)n1cc(C(N)=O)c(Nc2ccc(C(F)(F)F)cc2)n1 (stereo not shown) [Example 4-3, 1-(2-cyano-1-cyclopropylethyl)-3-{[4-(trifluoromethyl)phenyl]amino}-1H-pyrazole-4-carboxamide] |  |  | 12 | 110 |
| N#CC[C@H](C1CC1)n1cc(C(N)=O)c(Nc2ccc3c(c2)CNC3=O)n1 (single isomer, unassigned) [Example 19-1, 1-[(1R or 1S)-2-cyano-1-cyclopropylethyl]-3-[(1-oxo-2,3-dihydro-1H-isoindol-5-yl)amino]-1H-pyrazole-4-carboxamide] |  | 15 |  |  |
| N#CCc1cccc(Nc2nn(C(CC#N)C3CC3)cc2C(N)=O)c1 (stereo not shown) [Example 4-9, 1-(2-cyano-1-cyclopropylethyl)-3-{[3-(cyanomethyl)phenyl]amino}-1H-pyrazole-4-carboxamide] |  |  |  | 27 |
| N#CCC(C1CC1)n1cc(C(N)=O)c(Nc2ccc3c(c2)CNC3=O)n1 (stereo not shown) [Example 7, 1-(2-Cyano-1-cyclopropylethyl)-3-[(1-oxo-2,3-dihydro-4H-isoindol-5-yl)amino]-1H-pyrazole-4-carboxamide] |  |  |  | 38 |
